According to patent US8362031B2, “Lonidamine analogues and treatment of polycystic kidney disease” (University of Kansas, priority 2004, dated 2013):
Where “and” joins values, the source holds several entries; their conditions need not be identical. Equal entries are not always repeated. Entries after “also recorded” stand apart in the source; their conditions may differ. Where two headings read alike, the source gives them in different places.

Columns and labels:
[1] = test system: M-1 Clone 20; human primary cyst epithelial cells (ADPKD cells); test: MTT cell proliferation assay with cAMP (FIGS. 9A-9B); type: cell-based; conditions: 48 hours
Protocol: Various compounds were tested for their effects on cell proliferation. In the study, the cell types were M-1 Clone 20, which is an immortalized cell line that mimics PKD, and human primary cyst epithelial cells, or ADPKD cells. The compounds were tested at 1 μM to 100 μM concentrations.
M-1 clone 20 (“M1 Clone 20”) cells are a model of PKD-like cells, which were created by stably transfecting parental “normal” M-1 immortalized renal cortical collecting duct cells with the C-terminal cytosolic domain (or C-tail) of mouse polycystin-1 (the protein product of the Pkd1 gene. The overexpressed C-tail acts in a dominant-negative fashion, conferring the PKD phenotype to these cells. Their characterization is described in: Sutters, M., Yamaguchi, T., Maser, R. L., Magenheimer, B. S., St. John, P. L., Abrahamson, D. R., Grantham, J. J. and Calvet, J. P. (2001) Polycystin-1 transforms the cAMP growth-responsive phenotype of M-1 cells. Kidney Int. 60, 484-494.
FIGS. 9A-9B include graphs that show cells grown in the vehicle (i.e. DMSO at two different volumes of 1 uL and 5 uL respectively), cAMP only, and then under the treatment drugs, all of which also had cAMP in them. The comparison drug used was 10 uM of gamendazole. […] Absorbance is a measure of cell number.
The comparison drug used was 10 uM Gamendazole. The MTT cell proliferation assay was carried out to assess cell number—cell proliferation is essentially cell number. […] Thus, absorbance is a measure of cell number, or cell proliferation. The reference bar is the third bar from the left (cAMP)—the degree of inhibition should be compared to that bar.

[2] = test system: rats; test: Toxicology: organs sectioned and examined after dosing; type: in vivo; conditions: 25 mg/kg, two animals examined, findings per animal
Protocol: In at least two of the animals in each group, the pancreas, right kidney and part of the liver, heart, spleen, and lung were removed and evaluated for toxic effects.
The toxicology of animals receiving some of the compounds of the present invention IP and/or oral was examined. At the time of sacrifice samples of liver, pancreas, heart, lung, spleen and kidney were removed, visually inspected, and immersion fixed in Bouin's solution for a minimum of 48 hours. All organs were then sectioned and examined for evidence of necrosis, inflammation, hemorrhage, and possible tumors. The major veins in each tissue were also examined for distention, especially in the liver and pancreas, and any other abnormalities are compared to known histopathological states. In addition to the above, the heart was examined for evidence of fibrosis in the muscular walls, and to compare the thickness of the ventricular walls. The pancreas was examined mainly for calcium deposits, while the lung was checked for signs of any exudates or hemorrhage, especially in the alveolar spaces. Finally, the kidney was examined mainly for microscopic hemorrhages, tubular necrosis or alterations in the glomeruli in the cortex.
In this example, the effects of RC-MC-30 were compared with those of lonidamine in sexually mature rats. As discussed above, each of the rats (8 total) received a single injection and were sacrificed five days after injection and examined.

[3] = test system: Salmonella Typhimurium TA 100; test: Ames test for mutagenicity (plate assay, colony count); conditions: 48 hours at 37° C.
[4] = test system: Male Long Evans rats; test: In vivo antispermatogenic testing in Long Evans rats; conditions: for Response 200 mg/kg: 200 mg/kg single i.p. injection
[5] = test system: fruitfly; test: Reproduction of fruitfly; type: in vivo, Drosophila (fruitfly); conditions: provided to a fruitfly
Text: Several known Hsp90 inhibitors are listed above. With regard to HSP90, RC-MC-110 likely a novel inhibitor of the N-terminal ATP binding site or a novel site on Hsp90. It should be noted that mutants of Hsp90 in Drosophila (fruitfly) produce sterile males and females. […] Genetics. 1999 March; 151(3):1065-79.

[6] = test system: Male Long Evans rats; conditions: rat, in vivo, 5 days
[7] = animals responding out of animals surviving, five days following injection

SMILES	Inhibition of cell proliferation (MTT absorbance) ([1]; 10 uM)	Inhibition of cell proliferation (MTT absorbance) ([1]; 25 uM)	Toxicology: liver, lung, pancreas, spleen, heart and kidney (histology) [2]	Ames test (+)S9 0.1 mg/pl. ([3]; (+)S9 mix, 0.1 mg/pl.)	Ames test (+)S9 1 mg/pl. ([3]; (+)S9 mix, 1 mg/pl.)	Ames test (+)S9 10 mg/pl. ([3]; (+)S9 mix, 10 mg/pl.)	Ames test (−)S9 0.1 mg/pl. ([3]; (−)S9 mix, 0.1 mg/pl.)	Ames test (−)S9 1 mg/pl. ([3]; (−)S9 mix, 1 mg/pl.)	Ames test (−)S9 10 mg/pl. ([3]; (−)S9 mix, 10 mg/pl.)	Mortality (25 mg/kg) ([4]; 25 mg/kg single i.p. injection, […])	Response 200 mg/kg [4, 7]	Reproduction of fruitfly [5]	Mortality (25 mg/kg) [6]	Mortality (200 mg/kg) [6]	Response 25 mg/kg ([4]; 25 mg/kg single i.p. injection, animals responding out of animals surviving, five days following injection)
O=C(O)/C=C/c1nn(Cc2ccc(Cl)cc2Cl)c2cc(Cl)ccc12 [JWS-1-190, 3-[1-(2,4-dichlorobenzyl)-6-chloro-1H-indazol-3-yl]-acrylic acid]	very effective	quite effective in inhibiting cell proliferation	The lung did have multiple, scattered hemorrhagic patches in the alveolar clusters; also recorded: liver, lung, pancreas, spleen, heart and kidney all appeared within normal limits	Pass	Pass	Pass	Pass	Pass	Pass	0/5	0/0 and 2/5				
O=C(O)c1nn(Cc2ccc(Cl)cc2Cl)c2ccccc12 [Lonidamine, 1-(2,4,-dichlorobenzyl)-1H-indazole-3-carboxylic acid]			liver, lung, pancreas, spleen, heart and kidney all appeared normal								5/5	inhibited reproduction	0/5	0/5	2/5
